This is an account of results in patent US20030171347A1, “Sigma receptor antagonists having anti-cocaine properties and uses thereof” (priority 1998, published 2003).

Like-named read-outs stand apart in the source and are kept apart here.

Series [1] deals with T1, σ1 receptors (Cavia porcellus, UniProt Q60492).
T1 construct: Crude P2 membranes were prepared from guinea pig brain, rat brain, or rat liver; from tissue; host or cells: guinea pig brain (crude P2 membranes)
The experiment in a line: σ1 receptor competition binding. Also on record: species or system guinea pig. The conditions noted are these: read-out: σ1.

A further series addresses T2, σ2 sites (Rattus norvegicus, UniProt Q5U3Y7).
T2 construct: Crude P2 membranes were prepared from guinea pig brain, rat brain, or rat liver; from tissue; host or cells: rat liver (crude P2 membranes)
T2 sequence (Q5U3Y7 1-176): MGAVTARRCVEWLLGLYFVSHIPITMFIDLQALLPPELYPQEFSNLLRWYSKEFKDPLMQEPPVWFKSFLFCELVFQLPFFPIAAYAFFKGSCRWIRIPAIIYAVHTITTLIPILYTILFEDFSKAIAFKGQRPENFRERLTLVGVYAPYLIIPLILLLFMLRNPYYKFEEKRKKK
The experiment in a line: σ2 receptor competition binding.

Series [2] concerns σ1 receptors. Put plainly: Antisense oligodeoxynucleotide (i.c.v.), basal locomotor activity. It counts as in vivo, mouse. To be noted: i.c.v. antisense treatment, 30 min before the cocaine challenge.
For series [3], the system named is σ1 receptors. Put plainly: Antisense oligodeoxynucleotide (i.c.v.) against cocaine-induced convulsions. In kind it is in vivo, mouse.
The test system of series [4] is σ1 receptors. Put plainly: Antisense oligodeoxynucleotide (i.c.v.) against locomotor stimulatory effects of cocaine. In kind it is in vivo, mouse.
Another series addresses T3, Dopamine (D2) receptors (Rattus norvegicus, UniProt P61169).
T3 construct: from tissue; host or cells: rat brain homogenate / P2 membranes
Put plainly: Dopamine D2 receptor competition binding ([3H](−)sulpiride). To be noted: rat brain homogenates, [3H](−)sulpiride; read-out: Dopamine (D2).

Series [5] concerns the target PCP sites on NMDA receptors (Rattus norvegicus, UniProt P35439). Put plainly: PCP site competition binding ([3H]TCP). To be noted: rat brain homogenates, [3H]TCP; read-out: NMDA (PCP).
The next series deals with 5-HT2 receptors (Rattus norvegicus, UniProt P14842). The experiment in a line: 5-HT2 receptor competition binding ([3H]ketanserin). The conditions noted are these: rat brain homogenates, [3H]ketanserin; read-out: 5-HT2.
5-HT2 receptors, sequence (P14842 whole entry): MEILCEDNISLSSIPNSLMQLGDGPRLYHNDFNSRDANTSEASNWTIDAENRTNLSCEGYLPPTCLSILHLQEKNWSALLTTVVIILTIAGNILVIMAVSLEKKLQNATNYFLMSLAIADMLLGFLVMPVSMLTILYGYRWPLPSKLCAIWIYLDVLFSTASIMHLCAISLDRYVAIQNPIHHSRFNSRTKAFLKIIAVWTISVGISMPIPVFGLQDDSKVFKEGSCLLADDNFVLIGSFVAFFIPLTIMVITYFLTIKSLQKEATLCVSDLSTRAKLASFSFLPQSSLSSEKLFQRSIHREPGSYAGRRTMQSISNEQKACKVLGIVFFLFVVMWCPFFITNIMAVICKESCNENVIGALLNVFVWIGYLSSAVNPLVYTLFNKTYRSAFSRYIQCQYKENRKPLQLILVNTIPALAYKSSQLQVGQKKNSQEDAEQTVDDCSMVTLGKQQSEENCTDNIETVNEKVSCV
Series [6] has as its system Male, Swiss Webster mice. Put plainly: Effects of sigma ligands alone on baseline locomotor activity. It counts as in vivo. To be noted: 30 min; i.p. mg/kg: BD1008 1, BD1067 5, BD1047 30, LR172 5, BD1018 30, BD1063 30, LR132 30, LR176 10, YZ011 0.1, YZ027 1, YZ029 5.
For series [7], the system named is Male, Swiss Webster mice. The experiment in a line: Attenuation of cocaine-induced locomotor activity. It counts as in vivo. To be noted: same ligand doses as baseline test, 15 min before cocaine 10 mg/kg i.p.; 30 min; ANOVA.
The subject of the next series is rat red nucleus. Put plainly: Acute dystonic reaction after microinjection into the rat red nucleus. In kind it is in vivo. To be noted: alone and against sigma agonists such as DTG.
Where [8] appears, read: Table 1, [3H](+)-pentazocine, guinea pig brain, mean±SEM, minimum of two independent assays.
[9] abbreviates: Table 4, second series, [3H](+)-pentazocine, guinea pig brain.
Where [10] appears, read: Table 1, [3H]DTG plus dextrallorphan, rat liver, mean±SEM, minimum of two independent assays.
[11] abbreviates: Table 4, second series, [3H]DTG plus dextrallorphan, rat liver.
Setting [12] is: NYU sequences, 10 μg/5 μl i.c.v. on Days 1, 2 and 4, cocaine 60 mg/kg i.p. on Day 5.
Where [13] appears, read: Table 5, dopamine transporter ligands.

T1 sequence (Q60492 whole entry): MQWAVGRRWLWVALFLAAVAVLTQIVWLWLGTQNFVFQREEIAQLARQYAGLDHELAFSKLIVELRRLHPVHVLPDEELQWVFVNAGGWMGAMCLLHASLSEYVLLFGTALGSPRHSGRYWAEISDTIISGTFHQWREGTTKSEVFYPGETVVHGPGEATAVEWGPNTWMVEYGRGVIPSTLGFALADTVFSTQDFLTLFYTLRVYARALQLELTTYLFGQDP
T3 sequence (P61169 whole entry): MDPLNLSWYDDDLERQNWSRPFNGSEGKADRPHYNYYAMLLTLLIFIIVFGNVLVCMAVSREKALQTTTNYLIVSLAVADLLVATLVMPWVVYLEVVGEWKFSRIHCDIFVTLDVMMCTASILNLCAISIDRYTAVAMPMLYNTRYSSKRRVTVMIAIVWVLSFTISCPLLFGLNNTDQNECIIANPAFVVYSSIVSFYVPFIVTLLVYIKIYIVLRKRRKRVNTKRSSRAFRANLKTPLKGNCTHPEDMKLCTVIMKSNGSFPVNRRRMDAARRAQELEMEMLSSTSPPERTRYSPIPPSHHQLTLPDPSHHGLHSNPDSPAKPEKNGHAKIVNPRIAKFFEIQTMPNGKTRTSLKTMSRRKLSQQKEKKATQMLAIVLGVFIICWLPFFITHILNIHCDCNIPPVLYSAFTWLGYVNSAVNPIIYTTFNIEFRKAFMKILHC

For the molecule `Nc1ccccc1CCN1CCN(CCCc2ccccc2)CC1` [YZ-165-2-2], the Ki on σ1 receptors [1] (setting [8]) is 5 ± 0.1 nM; at σ1 receptors [1] (setting [9]), 5 ± 0.1 nM; on σ2 sites (setting [10]), 18 ± 0.2 nM; on σ2 sites (setting [11]), 18 ± 0.2 nM.

For `OC(CCCN1CCN(c2ncc(F)cn2)CC1)c1ccc(F)cc1` (centres unmarked) [BMY14802, reference compound], the Ki at σ2 sites (setting [10]) was determined as 51 ± 8 nM.

Take “5′-CCCACGGCATCCCAGCGG-3′ (all phosphorothioate, sugars by position and methylation of C not given here) [McGill antisense, 18-mer phosphorothioate antisense oligodeoxynucleotide targeting the 5′-end of the σ1 receptor (Kitaichi et al., 1997)]”: in the series with σ1 receptors [2], the basal locomotor activity result was “no effects on basal locomotor activity”. The “effect on cocaine-induced convulsions” value in the series on σ1 receptors [3] (McGill, 10 nmol/5 μl i.c.v. every 12 hours, four times, cocaine 60 mg/kg i.p. 12 hours after last) is on record as “significant attenuation of cocaine-induced convulsions”. For the same molecule, the “effect on locomotor stimulatory effects of cocaine” value in the series on σ1 receptors [4] (McGill, 10 nmol/5 μl i.c.v. every 12 hours, four times, cocaine 10 mg/kg i.p.) was “attenuates the locomotor stimulatory effects of cocaine”.

For the molecule `COc1ccccc1CC(=O)N(C)CCN1CCCC1` [YZ-008], the IC50 (at Dopamine (D2) receptors; in series [5]; at 5-HT2 receptors) was more than 10000 nM throughout. Besides, the Ki on σ2 sites (setting [10]) was found to be 3170 ± 144 nM.

`COc1cccc(CC(=O)N(C)CCN2CCCC2)c1` [YZ-005]: the IC50 (on Dopamine (D2) receptors; in series [5]; on 5-HT2 receptors) was more than 10000 nM throughout. Besides, the Ki on σ1 receptors [1] (setting [8]) was found to be 3101 ± 20 nM; on σ2 sites (setting [10]), 1110 ± 55 nM.

Regarding `CN(CCc1ccc([N+](=O)[O-])cc1)CCN1CCCC1` [YZ-029], the IC50 (on Dopamine (D2) receptors; in series [5]; on 5-HT2 receptors) was more than 10000 nM in each case. Besides, the Ki on σ1 receptors [1] (setting [8]) amounted to 4 ± 0.9 nM; at σ2 sites (setting [10]) it was 63 ± 0.1 nM. Further, in the series with Male, Swiss Webster mice [6], the “baseline horizontal locomotor activity versus saline” value is reported as “no significant difference”. The “cocaine stimulated locomotor activity after pre-treatment” value in the series with Male, Swiss Webster mice [7] is given as “significant reduction in cocaine stimulated locomotor activity”.

Regarding `COc1cccc(CCN2CCN(C(=O)Cc3cccc(OC)c3)CC2)c1` [YZ-085-2], the Ki on σ2 sites (setting [10]) and on σ2 sites (setting [11]) was 12 ± 2 nM in each case.

Regarding `Clc1ccc(CCN2CCN(CCCc3ccccc3)CC2)cc1Cl` [YZ-069-2], the Ki on σ1 receptors [1] (setting [8]) is 2 ± 0.2 nM; on σ1 receptors [1] (setting [9]) it was 2 ± 0.2 nM; at σ2 sites (setting [10]), 39 ± 2 nM; on σ2 sites (setting [11]), 39 ± 2 nM.

Regarding `COc1ccccc1CC(=O)N1CCN(CCCc2ccccc2)CC1` [YZ-048-2], the Ki came to 56 ± 8 nM at σ1 receptors [1] (setting [8]), 56 ± 8 nM on σ1 receptors [1] (setting [9]), 294 ± 10 nM at σ2 sites (setting [10]) and 294 ± 10 nM on σ2 sites (setting [11]).

Consider `CC(C)=CCN1CCC2(C)c3cc(O)ccc3CC1C2C` (single isomer, unassigned; (+)) [(+)-Pentazocine, reference compound], for which the “agonist versus antagonist designation (dystonic head postures)” value with rat red nucleus is “agonists”.

For `CN(CCc1cccc(N)c1)CCN1CCCC1` [YZ-033], the IC50 (at Dopamine (D2) receptors; in [5]; on 5-HT2 receptors) was more than 10000 nM each time. The Ki on σ1 receptors [1] (setting [8]) is 579 ± 35 nM; on σ2 sites (setting [10]) it was 2240 ± 260 nM.

Regarding “5′-GAGTGCCCAGCCACAACCAGG-3′ (all phosphorothioate, sugars by position and methylation of C not given here) [NYU antisense, 21-mer phosphorothioate antisense oligodeoxynucleotide against mouse σ1 receptors (King et al., 1997)]”, the basal locomotor activity result with σ1 receptors [2] is “no effects on basal locomotor activity”. The “effect on cocaine-induced convulsions” value with σ1 receptors [3] (setting [12]) is “protected against the convulsive effects of cocaine”. In addition, the “effect on locomotor stimulatory effects of cocaine” value with σ1 receptors [4] (NYU, 10 μg/5 μl i.c.v. on Days 1, 2 and 4, cocaine 10 mg/kg i.p. on Day 5) is listed as “attenuates the locomotor stimulatory effects of cocaine”.

In the case of `COc1ccc(CC(=O)N2CCN(CCCc3ccccc3)CC2)cc1` [YZ-051-2], the Ki is 13 ± 2 nM on σ1 receptors [1] (setting [8]), 13 ± 2 nM at σ1 receptors [1] (setting [9]), 464 ± 34 nM on σ2 sites (setting [10]) and 464 ± 34 nM at σ2 sites (setting [11]).

Take `CN(CCc1ccc(N)cc1)CCN1CCCC1` [YZ-030]: the IC50 (on Dopamine (D2) receptors; in [5]; on 5-HT2 receptors) was more than 10000 nM throughout. The Ki worked out at 276 ± 13 nM at σ1 receptors [1] (setting [8]) and 973 ± 77 nM on σ2 sites (setting [10]).

As to `CN(CCc1ccccc1[N+](=O)[O-])CCN1CCCC1` [YZ-028], the IC50 (at Dopamine (D2) receptors; in series [5]; on 5-HT2 receptors) was more than 10000 nM throughout. The results for the Ki at σ1 receptors [1] (setting [8]) and at σ2 sites (setting [10]) were 8 ± 0.9 nM and 311 ± 4 nM, respectively.

For `COc1ccc(CC(=O)N(C)CCN2CCCC2)cc1` [YZ-007], the IC50 (at Dopamine (D2) receptors; in series [5]; on 5-HT2 receptors) was more than 10000 nM in each case. The Ki turned out to be 2220 ± 61 nM at σ1 receptors [1] (setting [8]) and 1220 ± 95 nM at σ2 sites (setting [10]).

For the molecule `CN(CCc1cccc([N+](=O)[O-])c1)CCN1CCCC1` [YZ-027], the IC50 (at Dopamine (D2) receptors; in [5]; on 5-HT2 receptors) was more than 10000 nM each time. Besides, the Ki was found to be 6 ± 2 nM on σ1 receptors [1] (setting [8]) and 95 ± 0.7 nM at σ2 sites (setting [10]). In addition, the “baseline horizontal locomotor activity versus saline” value in the series with Male, Swiss Webster mice [6] is “no significant difference”. In addition, in the series with Male, Swiss Webster mice [7], the “cocaine stimulated locomotor activity after pre-treatment” value is recorded as “significant reduction in cocaine stimulated locomotor activity”.

On to `Fc1ccc(C(OCCN2CCN(CCCc3ccccc3)CC2)c2ccc(F)cc2)cc1` [GBR 12909, reference compound], for which the Ki turned out to be 132 ± 31 nM at σ1 receptors [1] (setting [13]) and 133 ± 37 nM on σ2 sites (setting [13]).

`COc1ccccc1CCN1CCN(CCCc2ccccc2)CC1` [YZ-184-2]: the Ki at σ2 sites (setting [10]) and on σ2 sites (setting [11]) was 8 ± 0.2 nM in each case.

As to `CCCN(CCc1ccc(Cl)c(Cl)c1)CCN1CCCCC1` [BD1069], the IC50 (at Dopamine (D2) receptors; in series [5]; on 5-HT2 receptors) was more than 10000 nM in each case. Besides, the Ki on σ1 receptors [1] amounted to 1 ± 0.2 nM; on σ2 sites (setting [10]), 545 ± 139 nM. Further, the “agonist versus antagonist designation (dystonic head postures)” value in the series on rat red nucleus is reported as “variable, partial agonist actions”.

Regarding `NCCN1CCN(CCCc2ccccc2)CC1` [YZ-136-2], the Ki at σ1 receptors [1] (setting [8]) was 3 ± 0.09 nM; on σ1 receptors [1] (setting [9]) it was 3 ± 0.09 nM; at σ2 sites (setting [10]), 188 ± 13 nM; on σ2 sites (setting [11]), 188 ± 13 nM.

Take `C[C@@H]1CN(CCCn2c3ccccc3c3ccccc32)C[C@H](C)N1` [Rimcazole, reference compound]: the Ki at σ2 sites (setting [10]) was found to be 1160 ± 160 nM.

Regarding `COc1ccc(CCN2CCN(CCCc3ccccc3)CC2)cc1` [YZ-067-2], the Ki on σ1 receptors [1] (setting [8]) stood at 1 ± 0.3 nM; on σ1 receptors [1] (setting [9]), 1 ± 0.3 nM; at σ2 sites (setting [10]), 29 ± 2 nM; on σ2 sites (setting [11]), 29 ± 2 nM.

Take `CN(CCc1ccccc1N)CCN1CCCC1` [YZ-032]: the IC50 (on Dopamine (D2) receptors; in [5]; at 5-HT2 receptors) was more than 10000 nM each time. Moreover, the Ki on σ1 receptors [1] (setting [8]) is 291 ± 38 nM; on σ2 sites (setting [10]), 640 ± 25 nM.

In the case of “5′-GAGGTCCCGACCACACACAGG-3′ (all phosphorothioate, sugars by position and methylation of C not given here) [mismatch]”, the “effect on cocaine-induced convulsions” value in the series on σ1 receptors [3] (setting [12]) is reported as “responses no different from the saline-treated animals”.

`O=C(Cc1ccc([N+](=O)[O-])cc1)N1CCN(CCCc2ccccc2)CC1` [YZ-155-2]: the Ki on σ1 receptors [1] (setting [8]) is 14 ± 1 nM; at σ1 receptors [1] (setting [9]), 14 ± 1 nM; at σ2 sites (setting [10]), 167 ± 4 nM; at σ2 sites (setting [11]), 167 ± 4 nM.
